ChEMBL document CHEMBL1764984 (J Med Chem, 2011)
Converted amounts (≈) assume the structure as drawn.

What was measured:
Blood = experiment: Inhibition of TNFalpha-induced IL1-beta production in human whole blood after 2 to 5 hrs by ELISA; type: functional, tissue-based
[1] = Aqueous solubility of the compound in phosphate buffer at pH 6.5; type: physicochemical
[2] = Permeability of the compound from apical to basolateral side of human Caco2 cells at 10 uM after 21 days; type: ADME, cell-based; conditions: Caco-2, read-out: permeability
[3] = Permeability of the compound from basolateral to apical side of human Caco2 cells at 10 uM after 21 days; type: ADME, cell-based; conditions: Caco-2, read-out: permeability
Rattus norvegicus = experiment: Inhibition of LPS-induced TNFalpha production in rat serum at 3 mg/kg, po administered 30 mins before LPS challenge measured after […] by ELISA; type: functional
[4] = molecular target: Mitogen-activated protein kinase 14 (Homo sapiens, UniProt Q16539); experiment: Inhibition of human recombinant p38alpha assessed as incorporation of 33P from gamma-[33P]ATP into myelin basic protein after 30 mins by scintillation counting
Mitogen-activated protein kinase 14, sequence (Q16539 whole entry): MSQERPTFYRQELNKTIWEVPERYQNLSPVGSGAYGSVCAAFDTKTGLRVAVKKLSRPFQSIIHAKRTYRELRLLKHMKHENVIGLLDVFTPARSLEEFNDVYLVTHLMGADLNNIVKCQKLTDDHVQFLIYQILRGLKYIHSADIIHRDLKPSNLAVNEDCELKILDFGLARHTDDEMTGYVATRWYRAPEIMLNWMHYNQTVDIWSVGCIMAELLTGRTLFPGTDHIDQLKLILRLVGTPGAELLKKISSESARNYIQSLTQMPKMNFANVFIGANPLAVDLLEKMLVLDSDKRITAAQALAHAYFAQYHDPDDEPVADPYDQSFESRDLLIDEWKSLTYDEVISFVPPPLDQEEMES

SMILES	IC50 (Blood)	IC50 [4]	further results
C[C@H](Cn1ncnn1)Nc1ncc2cc(Oc3ccc(F)cc3F)c(=O)n(C)c2n1	0.318 µM	–	–
C[C@@H](CS(C)(=O)=O)Nc1ncc2cc(Oc3ccc(F)cc3F)c(=O)n(C)c2n1	> 3 µM	–	–
C[C@H](CS(C)(=O)=O)Nc1ncc2cc(Oc3ccc(F)cc3F)c(=O)n(C)c2n1	0.05 µM	–	solubility [1]: 0.018 mg/mL (≈ 42.4 µM); Papp A→B at 10 µM [2]: 135 nm/s; Papp B→A at 10 µM [3]: 224 nm/s; inhibition in vivo at 3 mg/kg (Rattus norvegicus): 88%
CC(C)Nc1ncc2cc(Oc3ccc(F)cc3F)c(=O)n(C)c2n1	0.045 µM	0.004 µM	–
Cn1c(=O)c(Oc2ccccc2)cc2cnc(NC3CCOCC3)nc21	0.451 µM	–	–
C[C@@H](Cn1ncnn1)Nc1ncc2cc(Oc3ccc(F)cc3F)c(=O)n(C)c2n1	0.009 µM	–	solubility [1]: 0.023 mg/mL (≈ 55.5 µM); Papp A→B at 10 µM [2]: 301 nm/s; Papp B→A at 10 µM [3]: 197 nm/s; inhibition in vivo at 3 mg/kg (Rattus norvegicus): 90%
Cn1c(=O)c(Oc2ccc(F)cc2)cc2cnc(NC3CCOCC3)nc21	0.547 µM	–	–
Cn1c(=O)c(Oc2cccc(F)c2)cc2cnc(NC3CCOCC3)nc21	1.22 µM	0.594 µM	–
Cn1c(=O)c(Oc2ccccc2F)cc2cnc(NC3CCOCC3)nc21	0.0648 µM	0.015 µM	–
Cn1c(=O)c(Sc2ccccc2F)cc2cnc(NC3CCOCC3)nc21	0.731 µM	0.111 µM	–
Cn1c(=O)c(Cc2ccccc2F)cc2cnc(NC3CCOCC3)nc21	0.407 µM	0.042 µM	–
Cn1c(=O)c(Cc2ccc(F)cc2F)cc2cnc(NC3CCOCC3)nc21	0.713 µM	0.04 µM	–
O=c1[nH]c2nc(NC3CCOCC3)ncc2cc1Oc1ccc(F)cc1F	0.084 µM	0.018 µM	–
CCn1c(=O)c(Oc2ccc(F)cc2F)cc2cnc(NC3CCOCC3)nc21	0.015 µM	0.001 µM	–
O=c1c(Oc2ccc(F)cc2F)cc2cnc(NC3CCOCC3)nc2n1C1CC1	0.013 µM	0.009 µM	–
O=c1c(Oc2ccc(F)cc2F)cc2cnc(NC3CCOCC3)nc2n1CCCO	0.014 µM	–	–

SMILES	IC50 (Blood)	IC50 [4]	further results
CS(=O)(=O)CCn1c(=O)c(Oc2ccc(F)cc2F)cc2cnc(NC3CCOCC3)nc21	0.308 µM	0.02 µM	–
CS(=O)(=O)CCCn1c(=O)c(Oc2ccc(F)cc2F)cc2cnc(NC3CCOCC3)nc21	0.018 µM	0.006 µM	–
O=c1c(Oc2ccc(F)cc2F)cc2cnc(NC3CCOCC3)nc2n1C1CCS(=O)(=O)CC1	0.011 µM	0.001 µM	–
CC(C)(O)Cn1c(=O)c(Oc2ccc(F)cc2F)cc2cnc(NC3CCOCC3)nc21	0.084 µM	0.012 µM	–
O=c1c(Oc2ccc(F)cc2F)cc2cnc(NC3CCOCC3)nc2n1C[C@H](O)CO	0.015 µM	0.007 µM	–
N#CCn1c(=O)c(Oc2ccc(F)cc2F)cc2cnc(NC3CCOCC3)nc21	0.028 µM	0.002 µM	–
CS(=O)(=O)N1CCC(n2c(=O)c(Oc3ccc(F)cc3F)cc3cnc(NC4CCOCC4)nc32)CC1	0.052 µM	0.001 µM	–
CNc1ncc2cc(Oc3ccc(F)cc3F)c(=O)n(C)c2n1	–	0.26 µM	–
Cn1c(=O)c(Oc2ccc(F)cc2F)cc2cnc(N[C@H]3CCOC3)nc21	0.373 µM	0.031 µM	–
Cn1c(=O)c(Oc2ccc(F)cc2F)cc2cnc(NCC(C)(C)O)nc21	–	0.067 µM	–
Cn1c(=O)c(Oc2ccc(F)cc2F)cc2cnc(NC(C)(C)CO)nc21	–	0.025 µM	–
Cn1c(=O)c(Oc2ccc(F)cc2F)cc2cnc(NC(CO)CO)nc21	0.189 µM	0.158 µM	–
Cn1c(=O)c(Oc2ccc(F)cc2F)cc2cnc(NCCS(C)(=O)=O)nc21	1.49 µM	0.223 µM	–
CC(=O)N1CCC(Nc2ncc3cc(Oc4ccc(F)cc4F)c(=O)n(C)c3n2)CC1	0.03 µM	0.001 µM	solubility [1]: 0.014 mg/mL (≈ 32.6 µM); Papp A→B at 10 µM [2]: 179 nm/s; Papp B→A at 10 µM [3]: 198 nm/s; inhibition in vivo at 3 mg/kg (Rattus norvegicus): 76%
Cn1c(=O)c(Oc2ccc(F)cc2F)cc2cnc(N[C@H]3CC[C@H](O)CC3)nc21	0.068 µM	0.004 µM	–
Cn1c(=O)c(Oc2ccc(F)cc2F)cc2cnc(NC3CCS(=O)(=O)CC3)nc21	0.769 µM	0.015 µM	–
